Our source for the MIC values is US20120190613A1, “ECHINOCANDIN DERIVATIVES” (priority 2009, published 2012).

What is called MIC is the smallest concentration in the dilution series that meets the test's criterion for growth inhibition. A low value points to inhibition by little substance.

Common to all, as to format: cell-based
Experiment [1] deals with C. parapsilosis 630 ATCC 90018. The experiment is described as follows: MIC by broth microdilution against C. parapsilosis. The note with it: 48 hr. How it is done: (§1) MIC values (μg/mL) of echinocandin class compounds of the invention against various Candida and Aspergillus species were obtained as follows. Test organisms were obtained from the American Type Culture Collection (Manassas, Va.). The isolates were maintained at −80 ° C., then thawed and sub-cultured one day prior to testing (seven days for Aspergillus strains).
(§2) The mouse serum was heat-inactivated for 30 minutes at 56° C., and filtered through a 0.2 μm low protein binding filter unit prior to use.
(§3) MIC values were determined using broth microdilution. The wells of the daughter plates ultimately contained 180 μL of RPMI-1640 medium with and without mouse serum, 10 μL of drug solution, and 10 μL of yeast or fungal inoculum.
(§4) Prior to susceptibility testing, fungal isolates were removed from frozen storage, thawed at room temperature, and subcultured to Potato Dextrose Agar. The Candida strains were incubated overnight at 35° C. and the Aspergillus strains for 7 days at 25° C. Yeast colonies were inoculated into sterile saline and adjusted to the turbidity of a 0.5 McFarland standard. Inoculums from Aspergillus strains were prepared by washing the surface of an agar slant with 1 mL of sterile saline containing 0.05% of Tween 20. The resulting colloidial suspensions were adjusted to an optical density of 0.09 to 0.11 at λ 625 nm.
(§5) Both the yeast and filamentous fungus suspensions were further diluted 1:100 in RPMI-1640 medium and dispensed into sterile reservoirs and used to inoculate the daughter plates. 10 μL of standardized inoculum was delivered into each well. This yielded a final cell concentration in the daughter plates of approximately 2.5×10^3 colony-forming units/mL. Plates were incubated at 35° C. for approximately 48 hr.
(§6) Following incubation, microplates were viewed from the bottom using a plate viewer.
In general terms: Dilution methods test growth across graded concentrations, often in twofold steps.

In the next experiment the test system is A. flavus 626 ATCC 64025. Briefly: MIC by broth microdilution against A. flavus. As to conditions: 48 hr, growth reduction of 50%. How it is done:
as §1, §2, §3, §4, §5, §6

The subject of experiment [2] is C. albicans 104 ATCC 90028. The experiment is described as follows: MIC by broth microdilution against C. albicans. As to conditions: 48 hr. The procedure: as §1, §2, §3, §4, §5, §6

≈ marks a conversion by molar mass, not a printed value. Starred links: 1 amine or outer side, 2 acyl side, 3 side chain; linkers in the order of their positions; H or OH if unused. Positions of bridges follow the written chain, without caps; N, C: chain ends. Non-standard residues stand in square brackets, D forms with d. Residues, ends and D or L forms follow the SMILES beside them. *: point of attachment. Orn(4R-OH,5R-OH) = O=C([C@H](C[C@@H](O)[C@@H](O)N[*:3])N[*:1])[*:2]; Tetradecanoyl(10R,12S-Me2) = CC[C@H](C)C[C@H](C)CCCCCCCCC(=O)*; hTyr(3S-OH,4S-OH) = N[C@H](C(=O)O)[C@H](O)[C@@H](O)c1ccc(O)cc1; Gln(3R-OH) = NC(=O)C[C@@H](O)[C@H](N)C(=O)O; Pro(3S-OH) = O=C(O)[C@H]1NCC[C@@H]1O; Hyp = O=C(O)[C@@H]1C[C@@H](O)CN1

On to `CCC(C)CC(C)CCCCCCCCC(=O)NC1CC(O)C(OCCOCCOCCOCCOC)NC(=O)C2C(O)CCN2C(=O)C(C(O)CC(N)=O)NC(=O)C(C(O)C(O)c2ccc(O)cc2)NC(=O)C2CC(O)CN2C(=O)C(C(C)O)NC1=O` (stereo not drawn) [Compound 8], for which the MIC was above 16 µg/mL in experiment [1] (0% mouse serum); above 16 µg/mL in experiment [1] (50% mouse serum); 0.5 µg/mL (≈ 0.398 µM) against A. flavus 626 ATCC 64025 (0% mouse serum); 2 µg/mL (≈ 1.59 µM) in the experiment on A. flavus 626 ATCC 64025 (50% mouse serum); 8 µg/mL (≈ 6.37 µM) in experiment [2] (0% mouse serum); above 16 µg/mL in experiment [2] (50% mouse serum).

Turning to `CCC(C)CC(C)CCCCCCCCC(=O)NC1CC(O)C(OCCOCCOCCOCCOCCOCCOCCOC)NC(=O)C2C(O)CCN2C(=O)C(C(O)CC(N)=O)NC(=O)C(C(O)C(O)c2ccc(O)cc2)NC(=O)C2CC(O)CN2C(=O)C(C(C)O)NC1=O` (stereo not drawn) [Compound 9], the MIC in experiment [1] (0% mouse serum) was above 16 µg/mL; in experiment [1] (50% mouse serum), above 16 µg/mL; in the experiment with A. flavus 626 ATCC 64025 (0% mouse serum), 2 µg/mL (≈ 1.44 µM); against A. flavus 626 ATCC 64025 (50% mouse serum) it was 8 µg/mL (≈ 5.77 µM); in experiment [2] (0% mouse serum) it was above 16 µg/mL; in experiment [2] (50% mouse serum) it was above 16 µg/mL.

In the case of `CCC(C)CC(C)CCCCCCCCC(=O)NC1CC(O)C(OCCCCCCOCCOCCOCCOCCOCCOCCOCCOC)NC(=O)C2C(O)CCN2C(=O)C(C(O)CC(N)=O)NC(=O)C(C(O)C(O)c2ccc(O)cc2)NC(=O)C2CC(O)CN2C(=O)C(C(C)O)NC1=O` (stereo not drawn) [Compound 10], the MIC is above 16 µg/mL in experiment [1] (0% mouse serum); above 16 µg/mL in experiment [1] (50% mouse serum); 4 µg/mL (≈ 2.69 µM) with A. flavus 626 ATCC 64025 (0% mouse serum); 16 µg/mL (≈ 10.8 µM) in the experiment on A. flavus 626 ATCC 64025 (50% mouse serum); above 16 µg/mL in experiment [2] (0% mouse serum); above 16 µg/mL in experiment [2] (50% mouse serum).

For `CC[C@H](C)C[C@H](C)CCCCCCCCC(=O)N[C@H]1C[C@@H](O)[C@@H](O)NC(=O)[C@@H]2[C@@H](O)CCN2C(=O)[C@H]([C@H](O)CC(N)=O)NC(=O)[C@H]([C@H](O)[C@@H](O)c2ccc(O)cc2)NC(=O)[C@@H]2C[C@@H](O)CN2C(=O)[C@H]([C@@H](C)O)NC1=O` [Pneumocandin B0, pneumocandin B0, reference compound] ({Tetradecanoyl(10R,12S-Me2)}-[Orn(4R-OH,5R-OH)]T[Hyp][hTyr(3S-OH,4S-OH)][Gln(3R-OH)][Pro(3S-OH)]; lactam 1-C), the MIC in experiment [1] (0% mouse serum) was 8 µg/mL (≈ 7.51 µM); in experiment [1] (50% mouse serum), above 16 µg/mL; in the experiment with A. flavus 626 ATCC 64025 (0% mouse serum) it was 1 µg/mL (≈ 0.939 µM); with A. flavus 626 ATCC 64025 (50% mouse serum) it was 0.25 µg/mL (≈ 0.235 µM); in experiment [2] (0% mouse serum), 0.25 µg/mL (≈ 0.235 µM); in experiment [2] (50% mouse serum) it was 4 µg/mL (≈ 3.76 µM).
